Common to all, as to assay type: cell-based
In experiment [1] the test system is Plasmodium falciparum TM91C235. Nature of the experiment: In vitro antimalarial [3H]-hypoxanthine incorporation assay, TM91C235. The following applies: P. falciparum TM91C235 (multiple drug resistant isolate), 72 hours exposure; for IC50: Plasmodium falciparum. The source says: (§1) The in vitro screens for intrinsic antimalarial activity were based on modifications of the procedures described by Desjardins R E, Canfield C J, Haynes J D, Chulay J D. (Quantitative assessment of antimalarial activity in vitro by a semiautomated microdilution technique. Antimicrob Agents Chemother. 1979 December; 16(6):710-8.), Chulay J D, Haynes J D, Diggs C L. (Plasmodium falciparum: Assessment of in vitro growth by [3H]hypoxanthine incorporation. Exp. Parasitol. 1983 55:138-146.), and Milhous W K, Weatherly N F, Bowdre J H, Desjardins R E. (In vitro activities of and mechanisms of resistance to antifol antimalarial drugs. Antimicrob Agents Chemother. 1985 April; 27(4):525-30.). The system was limited to the assessment of the intrinsic activity against the erythrocytic asexual life cycle (blood schizontocides). Two Plasmodium falciparum clones from CDC/Indochina III (W-2) and CDC/Sierra Leone I (D-6) (Oduola A M, Weatherly N F, Bowdre J H, Desjardins R E. Plasmodium falciparum: cloning by single-erythrocyte micromanipulation and heterogeneity in vitro. Exp Parasitol. 1988 66(1):86-95.) were used for all assays. TM91C235, a multiple drug resistant isolate from Thailand, was used for the prescreening assay. W-2 is resistant to chloroquine, quinine, and pyrimethamine and susceptible to mefloquine. D-6 tends to be more resistant to mefloquine and susceptible to chloroquine, quinine, and pyrimethamine. All documents cited in this paragraph are incorporated by reference in their entirety.
(§2) All parasites were maintained in continuous long term cultures in RPMI-1640 medium supplemented with 6% washed human A positive (A+)(erythrocytes, 25 mM Hepes, […], and 10% heat inactivated A+human plasma or ALBUMAX® (lipid-rich bovine serum albumin; Invitrogen, Carlsbad, Calif.). All cultures and assays were conducted at 37° C. under an atmosphere of 5% CO2 and 5% O2, with a balance of N2.
The prescreening assay uses TM91C235 diluted at a 0.4% parasitemia in a 1% hematocrit in folic acid free and p-aminobenzoic acid free media RPMI-1640 and ALBUMAX®. One mg of the compound is typically dissolved in 100 μl of dimethyl sulfoxide (DMSO). The compound is further diluted in culture medium (FF) with ALBUMAX® for the first initial starting concentration. The rest of the stock drug solution was kept at −70° C. The isolate was preexposed, in duplicate, at three concentrations (25,000 ng/ml, 2,500 ng/ml, and 25 ng/ml) of the test compound for 48 hr in a 96-well microtiter plate (MTP) using the BIOMEK® 2000 automated laboratory workstation. Each MTP contains chloroquine as control to assess the relative activity of the compound and to monitor the response of TM91C235.
(§3) After the preincubation, [^3H]-hypoxanthine was added to each well of the MTP. (The assay relies on the incorporation of radiolabeled hypoxanthine by the parasites, which indicates reproduction, and inhibition of isotope incorporation was attributed to activity of known or candidate antimalarial drugs). After 72 hr of total incubation time, the MTP were frozen to lyse the erythrocytes and parasites. The parasite DNA was recovered by harvesting the lysate onto glass-fiber filter plates using a Packard FilterMate™ Cell Harvester. The radioactivity was counted on a Packard TopCount™ microplate scintillation counter. The results were recorded as counts per minutes (CPM) per well at each drug concentration divided by the arithmetic mean of the CPM from the three untreated infection parasite control wells.
The serial dilution assay was conducted using the same assay conditions and stock solution of the compound used for the preliminary screen, described above. Both the D-6 and the W-2 clones were used. The compounds were diluted two-fold over 11 different concentration ranges with a starting concentration that was based on the preliminary screen. […]

For experiment [2], the system named is Plasmodium falciparum clone CDC/Indochina III (W-2). In words: In vitro antimalarial [3H]-hypoxanthine incorporation serial dilution assay, W2. As to conditions: P. falciparum W2, 72 hours exposure; for IC50: Plasmodium falciparum.
Text: as §1, §2, §3
(§4) The serial dilution assay was conducted using the same assay conditions and stock solution of the compound used for the preliminary screen, described above. Both the D-6 and the W-2 clones were used. The compounds were diluted two-fold over 11 different concentration ranges with a starting concentration that was based on the preliminary screen. For each drug, the concentration response profile was determined and 50% inhibitory concentrations (IC50) were determined by using a non-linear, logistic dose response analysis program. […] For each assay, the IC50 for each clone was determined against the known antimalarials chloroquine and mefloquine. These control values established the compound's relative parasite susceptibility profile compared to known antimalarials. […]
(§5) The in vitro potency of the compounds has been compared with that of azithromycin to better gauge compounds suitable for further testing. As described above, parasites were exposed for 72 hours. Data from the in vitro potency tests of azithromycin against the three parasite strains have been averaged, and these numbers have been used for identification of “active” macrolide compounds.

The subject of experiment [3] is Plasmodium falciparum clone CDC/Sierra Leone I (D-6). In words: In vitro antimalarial [3H]-hypoxanthine incorporation serial dilution assay, D6. As to conditions: P. falciparum D6, 72 hours exposure; for IC50: Plasmodium falciparum, D6, 72 h, read-out: IC50 D6.
Text: as §1, §2, §3, §4, §5

In brackets after ≈: the same amount, converted by molar mass.

Take `CC[C@H]1OC(=O)[C@H](C)[C@@H](O[C@H]2C[C@@](C)(OC)[C@@H](O)[C@H](C)O2)[C@H](C)[C@@H](O[C@@H]2O[C@H](C)C[C@H](N(C)C)[C@H]2O)[C@](C)(O)C[C@@H](C)CN(CCCNC(=O)Nc2ccc(OC)c(OC3CCCC3)c2)[C@H](C)[C@@H](O)[C@]1(C)O` [Example 86]: the half-maximal inhibitory concentration (IC50) in experiment [1] amounted to 0.142 µg/mL (≈ 0.138 µM); in experiment [2], 0.207 µg/mL (≈ 0.201 µM); in experiment [3] it was 0.457 µg/mL (≈ 0.445 µM).
Turning to `CCC1OC(=O)C(C)C(OC2CC(C)(OC)C(O)C(C)O2)C(C)C(OC2OC(C)CC(N(C)C)C2O)C(C)(O)CC(C)CN(CCNC(=O)Nc2cccc3ccccc23)C(C)C(O)C1(C)O` (stereo not drawn) [Example 2, 9-Deoxo-9-dihydro-9a-[N′-(1-naphtyl)carbamoyl-β-aminoethyl]-9a-aza-9a-homoerythromycin A], the “IC50 TM91C235” value in experiment [1] was 0.0399 µg/mL (≈ 0.0421 µM). The “IC50 W2” value in experiment [2] amounted to 0.0744 µg/mL (≈ 0.0785 µM). The “IC50 D6” value in experiment [3] was 0.1344 µg/mL (≈ 0.142 µM).
On to `CC[C@H]1OC(=O)[C@H](C)[C@@H](O[C@H]2C[C@@](C)(OC)[C@@H](O)[C@H](C)O2)[C@H](C)[C@@H](O[C@@H]2O[C@H](C)C[C@H](N(C)C)[C@H]2O)[C@](C)(O)C[C@@H](C)CN(CCCNC(=O)Nc2ccc(C(F)(F)F)cc2)[C@H](C)[C@@H](O)[C@]1(C)O.O=CO` [Example 70], for which the half-maximal inhibitory concentration (IC50) came out at 0.0863 µg/mL in experiment [1], 0.0765 µg/mL in experiment [2] and 0.164 µg/mL in experiment [3].
With `CC[C@H]1OC(=O)[C@H](C)[C@@H](O[C@H]2C[C@@](C)(OC)[C@@H](O)[C@H](C)O2)[C@H](C)[C@@H](O[C@@H]2O[C@H](C)C[C@H](N(C)C)[C@H]2O)[C@](C)(O)C[C@@H](C)CN(CCCNC(=S)Nc2ccc(OC(F)F)cc2)[C@H](C)[C@@H](O)[C@]1(C)O.O=CO` [Example 134], the results for the IC50 in experiment [1], in experiment [2] and in experiment [3] were 0.0997 µg/mL, 0.279 µg/mL and 0.398 µg/mL, respectively.
Take `CC[C@H]1OC(=O)[C@H](C)[C@@H](O[C@H]2C[C@@](C)(OC)[C@@H](O)[C@H](C)O2)[C@H](C)[C@@H](O[C@@H]2O[C@H](C)C[C@H](N(C)C)[C@H]2O)[C@](C)(O)C[C@@H](C)CN(CCNC(=O)NC(C)C)[C@H](C)[C@@H](O)[C@]1(C)O` [Example 1, 9-Deoxo-9-dihydro-9a-(N′-isopropylcarbamoyl-β-aminoethyl)-9a-aza-9a-homoerythromycin A]: in experiment [1], the “IC50 TM91C235” value came to 0.6191 µg/mL (≈ 0.717 µM). Further, the “IC50 W2” value in experiment [2] came to 1.777 µg/mL (≈ 2.06 µM).
As for `CC[C@H]1OC(=O)[C@H](C)[C@@H](O[C@H]2C[C@@](C)(OC)[C@@H](O)[C@H](C)O2)[C@H](C)[C@@H](O[C@@H]2O[C@H](C)C[C@H](N(C)C)[C@H]2O)[C@](C)(O)C[C@@H](C)CN(CCCNC(=S)NCc2ccc3c(c2)CCC3)[C@H](C)[C@@H](O)[C@]1(C)O.O=CO` [Example 117], the half-inhibitory concentration (IC50) in experiment [1] amounted to 0.223 µg/mL; in experiment [3], 0.329 µg/mL.
For `CC[C@H]1OC(=O)[C@H](C)[C@@H](O[C@H]2C[C@@](C)(OC)[C@@H](O)[C@H](C)O2)[C@H](C)[C@@H](O[C@@H]2O[C@H](C)C[C@H](N(C)C)[C@H]2O)[C@](C)(O)C[C@@H](C)CN(CCCNC(=S)Nc2ccc(/N=N/c3ccccc3)cc2)[C@H](C)[C@@H](O)[C@]1(C)O` [Example 118] the same measures were 0.0993 µg/mL (≈ 0.0963 µM) and 0.111 µg/mL (≈ 0.107 µM).
As to `CC[C@H]1OC(=O)[C@H](C)[C@@H](O[C@H]2C[C@@](C)(OC)[C@@H](O)[C@H](C)O2)[C@H](C)[C@@H](O[C@@H]2O[C@H](C)C[C@H](N(C)C)[C@H]2O)[C@](C)(O)C[C@@H](C)CN(CCCNC(=O)Nc2ccc(Cl)cc2)[C@H](C)[C@@H](O)[C@]1(C)O.O=CO` [Example 77], the IC50 in experiment [1] turned out to be 0.0896 µg/mL; in experiment [3] it was 0.186 µg/mL.
For `CC[C@H]1OC(=O)[C@H](C)[C@@H](O[C@H]2C[C@@](C)(OC)[C@@H](O)[C@H](C)O2)[C@H](C)[C@@H](O[C@@H]2O[C@H](C)C[C@H](N(C)C)[C@H]2O)[C@](C)(O)C[C@@H](C)CN(CCCNC(=S)Nc2ccc(OCc3ccccc3)cc2)[C@H](C)[C@@H](O)[C@]1(C)O.O=CO` [Example 115] the same measures were 0.172 µg/mL and 0.269 µg/mL.

As a reminder, the IC50 is the concentration that gives 50% inhibition.
